Consider 10 substances from US8101576B2, “Compounds and their effects on feeding behaviour” (priority 2006, dated 2012).

A short description of assay [1]: Inhibition of food intake, intraperitoneal injection to fasted mice. The assay is classed as in vivo, C57BL/6 mice. The procedure: (§1) Animals: All animal procedures were approved by the British Home Office Animals (Scientific Procedures) Act 1986 (Project License number 70/5516).
(§2) Study protocol: C57BL/6 mice (20-35 g) were injected with the peptide under investigation following a 20-hour fast. Wistar rats were injected following a 24-hour fast. […] A pre-weighed quantity of chow was presented immediately after injection.

Assay [2] can be described thus: Inhibition of food intake, subcutaneous injection to fasted mice. The assay is classed as in vivo, C57BL/6 mice. To be noted: 20 nmoles/kg. The procedure: Animals: All animal procedures were approved by the British Home Office Animals (Scientific Procedures) Act 1986 (Project License number 70/5516). Male C57BL/6 mice and male Wistar rats were maintained in individual cages under controlled temperature (21-23° C.) with ad libitum access to standard chow (RMI diet, SDS Ltd, Witham, Essex, UK) and to water. The light cycle was 12 hours light and 12 hours dark with ‘dawn’ at 07:00, lights full on at 07:30, ‘dusk’ at 19:00 with lights off at 19:30. These times were fixed in the animal facility, All animals were handled almost daily for on average nine days prior to the first study. During the acclimatization period, mice received two saline injections at least two days apart in order to further acclimatize to the procedure on the study days. It was found in rats that minimising the number of injections provided an optimal response, and so acclimatization injections were not used.
Study protocol: C57BL/6 mice (20-35 g) were injected with the peptide under investigation following a 20-hour fast. Wistar rats were injected following a 24-hour fast. Typically 6 to 10 rodents were used per experimental group. Injections were typically administered at 9:00. A pre-weighed quantity of chow was presented immediately after injection. The remaining food was measured at regular time intervals (e.g. 1, 2, 3, 4, 6, 8, 24, 32 and 48 hours following injection) and food intake calculated.
The feeding effect of the following analogue of oxyntomodulin was investigated: PEPTIDE NO: 355 [SEQ ID NO:355]. The analogue was administered at a dose of […] by subcutaneous injection to a group of fasted mice. A further group was administered saline (control). Mean cumulative food intake over the course of 4 hours is shown in comparison to saline in FIG. 40. […] The food intake suppression continues for the whole 4 hour period; that is to say that the food intake over the 4 hour period is lower than in the saline control.
The feeding effect of the following analogue of oxyntomodulin was investigated: PEPTIDE NO: 130 [SEQ ID NO: 130]. […]

Assay [3] can be described thus: Inhibition of food intake, subcutaneous injection to fasted rats. The assay is classed as in vivo, Wistar rats. The following applies: 5 nmoles/kg, over 32 hours. The procedure:
as §1, §2

Square brackets hold non-standard residues; d marks the D form. Ends that are not written are not given here. * marks the point of attachment. Arachidoyl = CCCCCCCCCCCCCCCCCCCC(=O)*; Palmitoyl = CCCCCCCCCCCCCCCC(=O)*; Myristoyl = CCCCCCCCCCCCCC(=O)*

For “D-His Ala Gln Gly Thr Phe Thr Ser Asp Tyr Ser Lys Tyr Leu Glu Gln Glu Ile Val Lys Tyr Phe Leu Gln Trp Leu Lys Asn Ala Gly Pro Ser Lys Asn Asn Ile Ala ([dH]AQGTFTSDYSKYLEQEIVKYFLQWLKNAGPSKNNIA) [PEPTIDE NO: 136]”, in assay [1] (5 nmoles/kg, over 24 hours), the “Mean cumulative food intake in comparison to saline control” value (“Mean cumulative food intake” below) is “potent and long acting suppression of food intake”; the “food intake in comparison to control group treated with native oxyntomodulin” value (“food intake … with native oxyntomodulin” below) was “lower than in the control group treated with native oxyntomodulin”.

For the substance “D-His Ala Gln Gly Thr Phe Thr Ser Asp Tyr Ser Lys Tyr Leu glu Glu Glu Leu Val Lys Tyr Phe Ile Gln Trp Leu Met Asn Thr Lys Arg Asn Lys Asn Asn Ile Ala ([dH]AQGTFTSDYSKYLEEELVKYFIQWLMNTKRNKNNIA; not fully specified (residue 15)) [PEPTIDE NO: 108]”, in assay [1] (100 nmoles/kg, over 24 hours), the “Mean cumulative food intake” value is “potent and long acting suppression of food intake”; the “food intake … with native oxyntomodulin” value was “lower than in the control group treated with native oxyntomodulin”.

As for “D-His Ser Gln Gly Thr Phe Thr Ser Asp Tyr Ser Lys Tyr Leu Glu Glu Glu Leu Val Lys Tyr Phe Leu Gln Trp Leu Lys Asn Ala Gly Pro Ser Lys Asn Asn Ile Ala Glu Ala Lys-arachidoyl ([dH]SQGTFTSDYSKYLEEELVKYFLQWLKNAGPSKNNIAEAK(Arachidoyl)) [PEPTIDE NO: 214]”, in assay [1] (400 nmoles/kg, over 48 hours), the “Mean cumulative food intake” value is “potent and long acting suppression of food intake”; the “food intake … with native oxyntomodulin” value was “lower than in the control group treated with native oxyntomodulin”.

Turning to “D-His Ser Gln Gly Thr Phe Thr Ser Asp Tyr Ser Lys Tyr Leu Glu Glu Glu Leu Val Lys Tyr Phe Leu Gln Trp Leu Lys Asn Ala Gly Pro Ser Lys Asn Asn Ile Ala Glu Ala Lys ([dH]SQGTFTSDYSKYLEEELVKYFLQWLKNAGPSKNNIAEAK) [PEPTIDE NO: 210]”, in assay [1] (20 nmoles/kg, over 48 hours), the “Mean cumulative food intake” value was “potent and long acting suppression of food intake”; the “food intake … with native oxyntomodulin” value is recorded as “lower than in the control group treated with native oxyntomodulin”.

For the substance “D-His Ala Gln Gly Thr Phe Thr Ser Asp Tyr Ser Lys Tyr Leu Glu Gln Glu Leu Val Lys Tyr Phe Ile Gln Trp Leu Lys Asn Ala Gly Pro Ser Lys Asn Asn Ile Ala ([dH]AQGTFTSDYSKYLEQELVKYFIQWLKNAGPSKNNIA) [PEPTIDE NO: 130]”, the “food intake suppression continues for” value in assay [2] (24 hours observed) was ≥ 24 h. In assay [2] (over 24 hours), the “Mean cumulative food intake” value is “potent and long acting suppression of food intake”; the “food intake … with native oxyntomodulin” value is reported as “lower than in the control group treated with native oxyntomodulin”.

Regarding “D-His Ser Gln Gly Thr Phe Thr Ser Asp Tyr Ser Lys Tyr Leu Glu Glu Glu Leu Val Lys Tyr Phe Leu Gln Trp Leu Lys Asn Ala Gly Pro Ser Lys Asn Asn Ile Ala Glu Ala Lys-myristoyl ([dH]SQGTFTSDYSKYLEEELVKYFLQWLKNAGPSKNNIAEAK(Myristoyl)) [PEPTIDE NO: 211]”, in assay [1] (200 nmoles/kg, over 48 hours), the “Mean cumulative food intake” value was “potent and long acting suppression of food intake”; the “food intake … with native oxyntomodulin” value was “lower than in the control group treated with native oxyntomodulin”.

On to “HSQGTFTSDYSKYLEEELVKYFLQWLKNAGPSKNNIA [PEPTIDE NO: 4]”, for which, in assay [1] (5 nmoles/kg, over 24 hours), the “Mean cumulative food intake” value is “potent and long acting suppression of food intake”; the “food intake … with native oxyntomodulin” value is on record as “lower than in the control group treated with native oxyntomodulin”.

In the case of “D-His Ser Gln Gly Thr Phe Thr Ser Asp Tyr Ser Lys Tyr Leu Glu Glu Glu Leu Val Lys Tyr Phe Leu Gln Trp Leu Lys Asn Ala Gly Pro Ser Lys Asn Asn Ile Ala Glu Ala Lys-palmitoyl ([dH]SQGTFTSDYSKYLEEELVKYFLQWLKNAGPSKNNIAEAK(Palmitoyl)) [PEPTIDE NO: 213]”, in assay [1] (400 nmoles/kg, over 48 hours), the “Mean cumulative food intake” value was “potent and long acting suppression of food intake”; the “food intake … with native oxyntomodulin” value is “lower than in the control group treated with native oxyntomodulin”.

As to “D-His Ser Gln Gly Thr Phe Thr Ser Asp Tyr Ser Lys Tyr Leu Asp Ser Arg Arg Ala Gln Asp Phe Val Gln Trp Leu Lys Asn Ala Gly Pro Ser Lys Asn Asn Ile Ala ([dH]SQGTFTSDYSKYLDSRRAQDFVQWLKNAGPSKNNIA) [PEPTIDE NO: 195]”, in assay [1] (800 nmoles/kg, over 24 hours), the “Mean cumulative food intake” value is “potent and long acting suppression of food intake”; the “food intake … with native oxyntomodulin” value is listed as “lower than in the control group treated with native oxyntomodulin”.

Turning to “D-His Ala Asp Gly Thr Phe Thr Ser Asp Tyr Ser Lys Tyr Leu Glu Gln Glu Leu Val Lys Tyr Phe Ile Gln Trp Leu Lys Asn Gly Gly Pro Ser Lys Asn Asn Ile Ala Lys ([dH]ADGTFTSDYSKYLEQELVKYFIQWLKNGGPSKNNIAK) [PEPTIDE NO: 205]”, in assay [3], the “Mean cumulative food intake” value is “potent and long acting suppression of food intake”; the “food intake … with native oxyntomodulin” value is recorded as “lower than in the control group treated with native oxyntomodulin”.
